Data on three compounds can be found in patent publication US10660967B2, “Curcumin conjugates and methods of use thereof” (priority 2016, dated 2020).

The test system of series [1] is PHA-stimulated splenocytes. The series is described as follows: Proliferative response of PHA-stimulated splenocytes (MTT assay). The class given is cell-based. As to conditions: for Stimulation Index (average ± SD): PHA 5 μg/ml, 72 hr, compounds at 5 μM (method says 10 μM), ratio of O.D. versus vehicle control. The procedure: Immunomodulatory effects of the synthesized curcumin conjugates on the proliferative response of PHA-stimulated splenocytes were evaluated. The effect of curcumin and its amino acid conjugates on splenocyte viability and proliferation in response to a T cell miotgen (Phytohaemagglutinin; PHA) was evaluated using the MTT assay. Freshly prepared splenocytes (1×10^6 cells/200 μl/well) were cultured in a 96-well U-bottom microtiter plate (Nunc) in complete medium. Cells were treated with tested compounds at a final concentration of 10 μM, vehicle (DMSO) or left untreated in triplicate then incubated at 37° C. and 5% CO2. When testing the immunoregulatory effects of the compounds on splenocyte stimulation, PHA (5 μg/ml) was added to the culture media to induce T cell proliferation. The proliferative response to PHA+vehicle and vehicle alone served as controls. After 72 hr, media were removed after pelleting the cells by centrifugation and MTT salt solution (5 mg/ml) was added into each well then incubated at 37° C. for 4 h. Afterwards, formazan crystals were dissolved by adding 150 μl 10% sodium dodecyl sulfate (SDS). Absorbance was measured with a spectrophotometer at 570 nm and reference wavelength of 690 nm.
Splenocyte stimulation index was determined as the ratio of O.D. values in tested compounds versus vehicle control cultures.
(In general: Tetrazolium dyes change colour on reduction, which living cells bring about.)

Series [2] deals with lipopolysaccharide-stimulated peritoneal macrophages. The series is described as follows: Production of nitric oxide by lipopolysaccharide-stimulated peritoneal macrophages (Greiss reagent). The class given is cell-based. As to conditions: LPS-stimulated peritoneal macrophages; for Nitric oxide (nitrite) concentration, μM (average ± SD): 24 h, nitrite by Greiss reagent. Details: Potency (%): % inhibition of nitric oxide production relative to lipopolysaccharide-stimulated macrophages: concentration or dose not given beside the values. As for the experimental part: The effects of the synthesized curcumin conjugates on the production of nitric oxide (μM) by lipopolysaccharide-stimulated peritoneal macrophages were evaluated.
Two milliliters of macrophage cells were seeded in 12-well tissue culture plates in nitrite-free medium supplemented with 0.1% bovine serum albumin and incubated at 37° C. LPS±epinephrine, norepinephrine, or dopamine at […] concentrations was added to some wells. The concentrations of LPS used ranged from 0.5 to 10 ng/ml. After incubation for 24 h, supernatants were collected for measuring nitric oxide (NO) by spectrophotometry. The production of NO was determined from the accumulation of nitrite (NO2), the metabolic end product of NO metabolism, in the medium using the Greiss reagent. About equal volumes (100 μl) of sample and Greiss reagent (1:1 mixture of 1% sulfanilamide in 5% phosphoric acid, and 0.1% a-naphthylamine in distilled water) were mixed and incubated at room temperature for 15 min, and absorbance was measured at 532 nm on a spectrophotometer.

Series [3] has as its system Salmonella typhi ATCC19430. The series can be described thus: Antimicrobial MIC, agar dilution. The settings on record: Salmonella enterica, read-out: Minimum inhibitory concentration (MIC). The format is cell-based.
Series [4] relates to HCT116 (colon) carcinoma cell line. The series is described as follows: Anti-tumor properties, MTT. The format is cell-based. As to conditions: Homo sapiens, HCT-116; HCT116, 100 μM, 72 h; read-out: Percentage growth of tumor cell lines treated with the tested compounds (±SD). As for the experimental part: (§1) Anti-tumor properties of curcumin conjugates were evaluated. The synthesized curcumin-amino acid conjugates and curcumin itself were screened for their antitumor properties against human tumor cell lines utilizing HepG2 (hepatocellular), MCF7 (breast), and HCT116 (colon) carcinoma cell lines by the standard mitochondrial dependent reduction of yellow MTT [3-(4,5-dimethylthiazol-2-yl)-2,5-diphenyl-tetrazolium bromide] to purple formazan technique. Cancer cells were obtained from the Egyptian Company for Production of Vaccines, Sera and Drugs (VACSERA), Cairo, Egypt. Media, chemicals and supplies for the bio-assay were obtained from Biowest, Gibco and Lonza Companies. Cells were suspended in RPMI-1640 medium for HepG2, DMEMF12 for MCF-7, and DMEM for HCT116 in addition to 1% antibiotic-antimycotic mixture (10 […] potassium penicillin, 10 […] streptomycin sulfate and […] amphotericin B), 10% fetal bovine serum and 1% L-glutamine at 37° C., under 5% CO2 and 95% humidity. Cells were seeded at a concentration of 10×10^3 cells per well in fresh complete growth medium in 96-well tissue culture microtiter plates for 24 h. Media was aspirated, 180 μL fresh medium (without serum) were added and cells were incubated with different concentrations of sample to give a final concentration of 100 μM. 0.5% DMSO was used as a negative control and doxorubicin was used as a positive control (standard reference). Triplicate wells were prepared for each individual tested compound/dose. After 72 h of incubation, the medium was aspirated, 40 μL MTT salt (2.5 mg ml^1) were added to each well and incubated for an additional 4 h at 37° C. To stop the reaction and dissolve the formed crystals, 200 μL of 10% sodium dodecyl sulfate (SDS) in deionized water were added to each well and incubated overnight at 37° C. The absorbance was then measured at 595 nm with a reference wavelength of 620 nm. Data were collected as mean values for experiments performed in triplicates for each compound which had been measured by MTT assay.
(§2) The percentage of cell survival was calculated according to equation (4): […]
(§3) The IC50 was determined using Graph-Pad PRISM version-5 software. Statistical calculations for determination of the mean and standard deviation (SD) values were determined by SPSS 16 software.

The subject of series [5] is HepG2 (hepatocellular) carcinoma cell line. The series is described as follows: Anti-tumor properties, MTT. The format is cell-based. As to conditions: Homo sapiens; HepG2, 100 μM, 72 h; read-out: Percentage growth of tumor cell lines treated with the tested compounds (±SD). The procedure:
as §1, §2, §3

Series [6] concerns MCF7 (breast) carcinoma cell line. The series can be described thus: Anti-tumor properties, MTT. The format is cell-based. The settings on record: Homo sapiens; MCF7, 100 μM, 72 h; read-out: Percentage growth of tumor cell lines treated with the tested compounds (±SD). As for the experimental part:
as §1, §2, §3

The test system of the next series is MCF-7 cells. The series is described as follows: Effect on doxorubicin induced cytotoxicity (MTT). The settings on record: for Percentage of viable cells MCF-7 (average ± SD): 10 μM DOX in combination with 100 μM curcumin derivative, 48 hr; for viability at 100 µM: Homo sapiens, MCF7, 48 h, read-out: Percentage of viable cells MCF-7 (average ± SD). The procedure: The effects of curcumin conjugates on doxorubicin induced cytotoxicity were evaluated. In order to further examine whether curcumin derivatives can enhance conventional chemotherapeutic agents, MCF-7 cells were treated with 100 μM curcumin derivatives alone or in combination with 10 μM doxorubicin (DOX) for 48 hr. Control cultures received only medium, vehicle (DMSO), or vehicle+DOX. The percentage of viable cells was determined by MTT assay according to equation (5): […]

The test system of series [7] is Staphylococcus aureus ATCC25923. The series can be described thus: Antimicrobial MIC, agar dilution. On the technique in general: Agar dilution tests growth on a series of plates holding different concentrations.
In series [8] the test system is Streptococcus pyogenes ATCC19615. The series is described as follows: Antimicrobial MIC, agar dilution.
Series [9] concerns Pseudomonas aeruginosa ATCC27853. The series is described as follows: Antimicrobial MIC, agar dilution.
The test system of series [10] is Candida albicans (local isolate). The series is described as follows: Antimicrobial MIC, agar dilution. The settings on record: Candida albicans, read-out: Minimum inhibitory concentration (MIC).
The mark [11] stands for this setting: ATCC25923, 18 h, read-out: Minimum inhibitory concentration (MIC).
[12] abbreviates: ATCC25923, read-out: Minimum inhibitory concentration (MIC).
Setting [13] is: ATCC19615, 18 h, read-out: Minimum inhibitory concentration (MIC).
The mark [14] stands for this setting: ATCC19615, read-out: Minimum inhibitory concentration (MIC).
Where [15] appears, read: ATCC27853, 18 h, read-out: Minimum inhibitory concentration (MIC).
[16] abbreviates: ATCC27853, read-out: Minimum inhibitory concentration (MIC).

Each structure is given as a SMILES string. Read-outs that look alike come from different tables or passages of the source.

Turning to `COc1cc(/C=C/C(=O)CC(=O)/C=C/c2ccc(OC(=O)[C@H](Cc3c[nH]c4ccccc34)NC(=O)OCc3ccccc3)c(OC)c2)ccc1OC(=O)[C@H](Cc1c[nH]c2ccccc12)NC(=O)OCc1ccccc1` [Cbz-Trp-Cur, ((1E,6E)-3,5-dioxohepta-1,6-diene-1,7-diyl)bis(2-methoxy-4,1-phenylene) (2S,2′S)-bis(2-(((benzyloxy)carbonyl)amino)-3-(1H-indol-3-yl)propanoate)], in series [1], the “Stimulation Index (average ± SD)” value is 2.60 ± 0.12. The “Potency (%): % inhibition of nitric oxide production relative to lipopolysaccharide-stimulated macrophages” value in series [2] was 11.08%. Besides, the “Nitric oxide (nitrite) concentration, μM (average ± SD)” value (“Nitric oxide … (average ± SD)” for short) in series [2] is 24.28 ± 0.82 µM. Further, the MIC amounted to 0.125 µg/mL in series [3] (18 h); 0.124 µM in series [3]; 0.125 µg/mL in series [7] (setting [11]); 0.124 µM in [7] (setting [12]); 0.5 µg/mL in series [8] (setting [13]); 0.496 µM in series [8] (setting [14]). The MIC in [9] (setting [15]) is 0.25 µg/mL; in series [9] (setting [16]), 0.248 µM; in [10] (18 h), 1 µg/mL; in series [10], 0.991 µM. Moreover, the activity at 100 µM came to 100 ± 7% in [4], 97.6 ± 6.8% in [5] and 79.5 ± 0.6% in [6]. Moreover, the “Percentage of viable cells MCF-7 (average ± SD)” value (from here on “Percentage … (average ± SD)”) with MCF-7 cells turned out to be 45.17 ± 4.04. For the same compound, the viability at 100 µM in the series on MCF-7 cells worked out at 98.2 ± 2.96%.
As to `COc1cc(/C=C/C(=O)CC(=O)/C=C/c2ccc(OC(=O)[C@H](Cc3ccccc3)NC(=O)OCc3ccccc3)c(OC)c2)ccc1OC(=O)[C@H](Cc1ccccc1)NC(=O)OCc1ccccc1` [Cbz-Phe-Cur, ((1E,6E)-3,5-dioxohepta-1,6-diene-1,7-diyl)bis(2-methoxy-4,1-phenylene) (2S,2′S)-bis(2-(((benzyloxy)carbonyl)amino)-3-phenylpropanoate)], in [1], the “Stimulation Index (average ± SD)” value was 2.91 ± 0.13. Also, in series [1] (in the presence of PHA, text of b265), the “splenocyte proliferation, fold relative to untreated control cells” value is given as 3.81 fold. For the same compound, the “Potency (%): % inhibition of nitric oxide production relative to lipopolysaccharide-stimulated macrophages” value in series [2] turned out to be 3.60%. In addition, in series [2], the “Nitric oxide … (average ± SD)” value was found to be 26.33 ± 0.52 µM. The MIC in series [3] (18 h) was determined as 0.125 µg/mL; in series [3], 0.134 µM; in [7] (setting [11]) it was 0.125 µg/mL; in series [7] (setting [12]), 0.134 µM; in [8] (setting [13]), 0.125 µg/mL; in series [8] (setting [14]), 0.134 µM. The MIC in series [9] (setting [15]) stood at 0.25 µg/mL; in series [9] (setting [16]), 0.269 µM; in series [10] (18 h), 2 µg/mL; in [10] it was 2.15 µM. Besides, the activity at 100 µM in series [4] was found to be 96.4 ± 4%; in [5] it was 99.6 ± 8.7%; in [6] it was 69.3 ± 3%. The “Percentage … (average ± SD)” value with MCF-7 cells stood at 43.40 ± 4.74. In addition, the viability at 100 µM with MCF-7 cells was 105 ± 4.5%.
Consider `COc1cc(/C=C/C(=O)CC(=O)/C=C/c2ccc(OC(=O)[C@H](CC(C)C)NC(=O)OCC3c4ccccc4-c4ccccc43)c(OC)c2)ccc1OC(=O)[C@H](CC(C)C)NC(=O)OCC1c2ccccc2-c2ccccc21` [Fmoc-Leu-Cur, ((1E,6E)-3,5-dioxohepta-1,6-diene-1,7-diyl)bis(2-methoxy-4,1-phenylene) (2S,2′S)-bis(2-((((9H-fluoren-9-yl)methoxy)carbonyl)amino)-4-methylpentanoate)], for which the “Stimulation Index (average ± SD)” value in series [1] worked out at 2.16 ± 0.13. Besides, in series [2], the “Potency (%): % inhibition of nitric oxide production relative to lipopolysaccharide-stimulated macrophages” value worked out at 21.88%. Also, the “Nitric oxide … (average ± SD)” value in series [2] turned out to be 21.34 ± 0.86 µM. Besides, the MIC turned out to be 0.5 µg/mL in [3] (18 h); 0.481 µM in series [3]; 0.25 µg/mL in series [7] (setting [11]); 0.241 µM in series [7] (setting [12]); 0.5 µg/mL in series [8] (setting [13]); 0.481 µM in series [8] (setting [14]). Also, the MIC in series [9] (setting [15]) stood at 0.25 µg/mL; in series [9] (setting [16]), 0.241 µM; in [10] (18 h) it was 0.5 µg/mL; in series [10], 0.481 µM. The activity at 100 µM in series [4] was found to be 99.5 ± 3.8%; in series [5], 103 ± 2.6%; in series [6] it was 83 ± 1.1%. For the same compound, in the series on MCF-7 cells, the “Percentage … (average ± SD)” value was found to be 41.16 ± 2.33. For the same compound, the viability at 100 µM in the series on MCF-7 cells was determined as 98.2 ± 2.98%.
